Where two headings read alike, the source gives them in different places.
Tests used:
rats = test: Passive avoidance test in normal rats, 50% acquisition; format: in vivo; conditions: for Increase of the number of correct trails (% to control). Passive avoidance test (rats) / change in vivo at 0.1 mg/kg: 0.1 mg/kg i.p. 20 min before training, piracetam 250 mg/kg 60 min before training, rats; for change in vivo at 0.1 mg/kg: Rattus norvegicus, ip, 20 min, read-out: Increase of the number of correct trails (% to control). Passive avoidance test (rats)
Method: (§1) Psychoneurotropic activity of the declared compounds and their influence on learning and memory were observed using unbred male (18-20 g) mice and 180-200 g) rats, held at standard conditions (room temperature 21°-22° C., 12-hours lighting schedule, food and water ad libitum).
The influence of drugs on reflex conditioning in rats was studied by the passive avoidance test in conditions of 50% acquisition. The effect of the compound was estimated by the increase of the relative number of learned animals with respect to that of control group. […] The other reference drug--noothropic agent piracetam--was given in the dose 250 mg/kg 60 min before training. Amnestic syndrome was stimulated by 20 days application of Sc at the daily dose of 1 mg/kg intraperitoneally. […] The passive avoidance test was performed within 24 hours after the last application of test preparations.

mice [1] = test: Psychotropic activity test: arecoline induced hyperkynesis; format: in vivo; conditions: intraperitoneally, dose 1/20 of LD
mice [2] = test: Psychotropic activity test: motor activity; format: in vivo; conditions: intraperitoneally, dose 1/20 of LD
in vivo = conditions: for LD50: in vivo, ip
Method: as §1
Acute toxicity was studied by the method of Kerber with intra peritoneal drug injection.

[3] = biological target: T1, Acetylcholinesterase, enzyme from human erythrocytes (Homo sapiens, UniProt P22303); test: Acetylcholinesterase inhibition, spectrophotometric technique of Ellman; format: biochemical; conditions: Acetylcholinesterase inhibition IC50 (M), enzyme from human erythrocytes; Table 5
T1 construct: on the enzyme from human erythrocytes; from tissue; host or cells: human erythrocytes
T1 sequence (P22303-2 with tags, fused parts or gaps limits assumed): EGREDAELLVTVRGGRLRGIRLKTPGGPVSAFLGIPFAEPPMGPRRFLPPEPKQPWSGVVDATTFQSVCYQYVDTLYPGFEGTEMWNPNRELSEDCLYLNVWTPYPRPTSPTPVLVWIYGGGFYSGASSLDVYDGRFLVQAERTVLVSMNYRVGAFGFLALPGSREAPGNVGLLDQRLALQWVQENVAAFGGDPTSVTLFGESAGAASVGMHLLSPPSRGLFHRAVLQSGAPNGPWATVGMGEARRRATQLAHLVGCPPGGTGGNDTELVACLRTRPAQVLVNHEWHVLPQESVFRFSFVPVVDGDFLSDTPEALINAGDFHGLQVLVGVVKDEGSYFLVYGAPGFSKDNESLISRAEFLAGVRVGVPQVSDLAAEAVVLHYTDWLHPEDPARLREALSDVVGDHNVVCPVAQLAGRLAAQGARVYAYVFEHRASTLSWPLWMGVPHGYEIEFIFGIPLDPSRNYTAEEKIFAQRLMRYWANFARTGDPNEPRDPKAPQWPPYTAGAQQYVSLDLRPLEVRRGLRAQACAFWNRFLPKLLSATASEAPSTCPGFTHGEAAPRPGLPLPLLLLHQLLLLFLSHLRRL
Method: Acetylcholinesterase inhibition under the action of preparations was assessed by the spectrophotometric technique of Ellman on the enzyme from human erythrocytes.

rat adipocytes = test: Lipid composition of adipocytes after incubation with compounds; format: cell-based; conditions: cells; Table 11
Method: Lipid regulative activity of the declared compounds--derivatives of 9-amino acridine--were evaluated in vitro[…] using rat adipocytes. Adipocytes were separated from adipose tissue of testis appendages of adult male rats. Lipid composition analysis was performed by the method of thin-layer chromatography.
Quantitative analysis of phospholipids (PL), mono- and diacylglycerides (MDG), triacylglycerides (TG), free fatty acids (FFA), free cholesterol (FCL), and methyl esters of fatty acids (MEFA) was performed by the method of spectrophotometry.

[4] = intraperitoneal injection, Table 5
[5] = intraperitoneal injection, Table 5, read-out: LD50 (mg/kg) by Kerber

SMILES | Increase of the number of correct trails (% to control). Passive avoidance test (rats) (rats) | Increase of duration of arecoline induced hyperkynesis (% to control) (mice [1]) | Motor activity increment (% to control) (mice [2]) | LD50 (mg/kg) by Kerber (in vivo; [4]) | change in vivo at 0.1 mg/kg (rats) | IC50 [3] | LD50 (in vivo; [5]) | Performance of normal rats in passive avoidance test (rats) | LD50 (in vivo; LD50 (mg/kg) by Kerber) | FFA/TG in adipocytes (rat adipocytes) | PL/CL in adipocytes (rat adipocytes) | PL/TG in adipocytes (rat adipocytes)
CC1(C)C=Cc2c(nc3ccccc3c2NCc2ccccc2)C1 [VIIu] | 0 % to control | 12 % to control | 15 % to control | 83.8 ± 5.6 mg/kg |  |  |  |  |  |  |  | 
CCCCNc1c2c(nc3ccccc13)CC(C)(C)CC2=O [Vw] | 10 % to control | 10 % to control | 10 % to control | 125.0 ± 11.8 mg/kg |  |  |  |  |  |  |  | 
CCCCNc1c2c(nc3ccccc13)CC(C)(C)C=C2 [VIIc] |  | 15 % to control | 20 % to control |  | 25% | 6e-07 M | 33.3 ± 4.4 mg/kg |  |  |  |  | 
Cc1cc(C)c2nc3c(c(N)c2c1)C(=O)CC(C)(C)C3 [IVh] |  | 20 % to control | 0 % to control |  | 0% | 3e-05 M | > 500 mg/kg |  |  |  |  | 
CC1(C)C=Cc2c(nc3ccccc3c2NCc2ccccc2)C1 [VIIr] | 45 % to control | 0 % to control | 0 % to control | 69.5 ± 5.6 mg/kg |  |  |  | statistically significantly improved performance of normal rats |  |  |  | 
CCCCNc1c2c(nc3ccccc13)CC(C)(C)CC2=O [Vt] | 0 % to control | 0 % to control | 0 % to control | 210.0 ± 9.8 mg/kg |  |  |  |  |  |  |  | 
CC1(C)C=Cc2c(nc3ccccc3c2NCc2ccccc2)C1 [VIIf] | 0 % to control | 0 % to control | 0 % to control | 125.0 ± 15.5 mg/kg |  |  |  |  |  |  |  | 
CC1(C)C=Cc2c(nc3ccccc3c2NCc2ccccc2)C1 [VIIm] | 25 % to control | 15 % to control | 15 % to control | 112.5 ± 10.9 mg/kg |  |  |  |  |  |  |  | 
Cc1cccc2c(N)c3c(nc12)CC(C)(C)CC3=O [IVl] |  | 0 % to control | 57 % to control |  | 0% | 6.3e-07 M | 617 ± 23.7 mg/kg |  |  |  |  | 
CCCCNc1c2c(nc3ccccc13)CC(C)(C)CC2=O [Vy] | 0 % to control | 0 % to control | 0 % to control | 210.0 ± 14.8 mg/kg |  |  |  |  |  |  |  | 
CCN(CC)CCNc1c2c(nc3ccccc13)CC(C)(C)CC2=O [Vr] |  | 26 % to control | 0 % to control |  | 0% | 5e-05 M | 135 ± 8.2 mg/kg |  |  |  |  | 
CC1(C)C=Cc2c(nc3ccccc3c2NCc2ccccc2)C1 [VIIg] | 0 % to control | 0 % to control | 23 % to control | 200.0 ± 21.9 mg/kg |  |  |  |  |  |  |  | 
CCCCNc1c2c(nc3ccccc13)CC(C)(C)CC2=O [Vz] | 20 % to control | 0 % to control | 0 % to control | 200.0 ± 21.9 mg/kg |  |  |  |  |  |  |  | 
CCCCNc1c2c(nc3ccccc13)CC(C)(C)CC2=O [Vv] | 25 % to control | 15 % to control | 26 % to control | 433.3 ± 7.8 mg/kg |  |  |  |  |  |  |  | 
CC(C)CNc1c2c(nc3ccccc13)CC(C)(C)CC2=O [Vq] |  | 0 % to control | 75 % to control |  | 0% | 2e-06 M | 158 ± 21.9 mg/kg |  |  |  |  | 
CC1(C)C=Cc2c(nc3ccccc3c2NCc2ccccc2)C1 [VIIh] | 20 % to control | 28 % to control | 13 % to control | 116.7 ± 10.9 mg/kg |  |  |  |  |  |  |  | 
CCNc1c2c(nc3ccccc13)CC(C)(C)CC2=O [Vj] |  | 20 % to control | 59 % to control |  | 0% | 1.7e-06 M | 73.3 ± 8.6 mg/kg |  |  |  |  | 
CNc1c2c(nc3ccccc13)CC(C)(C)CC2=O [Vh] |  | 20 % to control | 40 % to control |  | 0% | 4e-07 M | 65.8 ± 4.8 mg/kg |  |  |  |  | 
Cc1ccc(C)c2c(N)c3c(nc12)CC(C)(C)CC3=O [IVf] |  | 0 % to control | 0 % to control |  | 0% | 1.3e-05 M | 40 ± 1.2 mg/kg | statistically significantly improved performance of normal rats |  |  |  | 
CC(C)Nc1c2c(nc3ccccc13)CC(C)(C)CC2=O [Vn] |  | 0 % to control | 76 % to control |  | 0% | 6e-06 M | 70.2 ± 7.3 mg/kg |  |  |  |  | 
CC1(C)C=Cc2c(nc3ccccc3c2NCc2ccccc2)C1 [VIIp] | 45 % to control | 21 % to control | 33 % to control |  |  |  |  | statistically significantly improved performance of normal rats | 75 ± 3.8 mg/kg |  |  | 
CCCCNc1c2c(nc3ccccc13)CC(C)(C)CC2=O [Vs] | 15 % to control | 0 % to control | 0 % to control | 165.8 ± 14.8 mg/kg |  |  |  |  |  |  |  | 
CC1(C)C=Cc2c(nc3ccccc3c2NCc2ccccc2)C1 [VIIn] | 40 % to control | 46 % to control | 11 % to control | 125.0 ± 10.9 mg/kg |  |  |  |  |  |  |  | 
CCCCNc1c2c(nc3ccccc13)CC(C)(C)CC2=O [Vx] | 25 % to control |  |  | 121.7 ± 15.5 mg/kg |  |  |  |  |  |  |  | 
CCCCNc1c2c(nc3ccccc13)CC(C)(C)CC2=O [Vu] | 30 % to control | 0 % to control | 20 % to control | 210.0 ± 5.8 mg/kg |  |  |  | statistically significantly improved performance of normal rats |  |  |  | 
CC1(C)C=Cc2c(nc3ccccc3c2NCc2ccccc2)C1 [VIIo] | 40 % to control | 0 % to control | 16 % to control | 62.5 ± 7.7 mg/kg |  |  |  | statistically significantly improved performance of normal rats |  |  |  | 
CC(C)(Sc1cc(C(C)(C)C)c(O)c(C(C)(C)C)c1)Sc1cc(C(C)(C)C)c(O)c(C(C)(C)C)c1 [probucol, reference compound] |  |  |  |  |  |  |  |  |  | 1.10 | 0.84 | 0.69
CC1(C)C=Cc2c(nc3ccccc3c2NCc2ccccc2)C1 [VIIq] | 45 % to control | 30 % to control | 20 % to control | 73.3 ± 4.4 mg/kg |  |  |  | statistically significantly improved performance of normal rats |  |  |  | 

Reference: patent US5672707A (priority 1991, dated 1997)
